In patent publication US11324178B2, “Wheat having resistance to glyphosate due to alterations in 5-enol- pyruvylshikimate-3 phosphate synthase” (priority 2015, dated 2022):
Entries after “also recorded” stand apart in the source; their conditions may differ.

Experiments:
[1] = tested on: wheat seeds homozygous for one single preferred EPSPS mutation (T173I B genome, T173I D genome or P177S A genome); assay: Growth chamber germination on MS medium containing glyphosate, shoot and root length; assay type: in vivo, Triticum aestivum; details: 0.1x MS medium, 0.15 mM glyphosate, 10-14 days of development
Description: (§1) Plants homozygous for the single preferred mutations (the T173I mutation in the B genome, the T173I mutation in the D genome and the P177S mutation in the A genome) were identified in the M3 seeds. Wild type siblings were also identified and used as controls. Plants that were homozygous for the T173I mutation in the D genome were crossed to plants that were homozygous for the P177S mutation in the A genome to generate double mutant plants.
(§2) Growth Chamber Studies: Seeds from plants that were homozygous for one of the single preferred mutations and seeds from their wild type sibling control plants were surface sterilized, placed on moist germination paper overnight, and then grown in glass tubes with 0.1× Murashige & Skoog (MS) medium containing 0 or 0.15 mM glyphosate. Germination was performed in a growth chamber under a light condition of 16 hours of light/8 hours of dark of 80 microEinsteins. At 10-14 days of development, shoot and root lengths were measured.
(§3) Seeds from plants that were homozygous for the double preferred mutations (both T173 I and P177S) were compared to seeds that were homozygous for each of the single preferred mutation for their ability to survive on MS media containing glyphosate. Seeds from their wild type sibling plants were used as […]. Seeds were germinated as described above.

[2] = tested on: wheat seeds homozygous for the double preferred EPSPS mutations (T173I D genome and P177S A genome); assay: as above; assay type: in vivo, Triticum aestivum; details: MS media containing glyphosate, double mutation seeds compared with single mutation seeds
Description: as §1, §2, §3

[3] = tested on: wild type sibling control seeds (wheat cultivar Express); assay: as above; assay type: in vivo, Triticum aestivum; details: 0.1x MS medium, 0.15 mM glyphosate, 10-14 days of development
Description: as §1, §2, §3

[4] = target: E. coli EPSPS T97I (Escherichia coli, UniProt P0A6D3, T97I); details: Funke et al. 2009; cited from earlier work
[5] = tested on: maize EPSPS (threonine to isoleucine); details: U.S. Pat. No. 6,566,587; cited from earlier work

Chain of E. coli EPSPS T97I (P0A6D3 whole entry T97I): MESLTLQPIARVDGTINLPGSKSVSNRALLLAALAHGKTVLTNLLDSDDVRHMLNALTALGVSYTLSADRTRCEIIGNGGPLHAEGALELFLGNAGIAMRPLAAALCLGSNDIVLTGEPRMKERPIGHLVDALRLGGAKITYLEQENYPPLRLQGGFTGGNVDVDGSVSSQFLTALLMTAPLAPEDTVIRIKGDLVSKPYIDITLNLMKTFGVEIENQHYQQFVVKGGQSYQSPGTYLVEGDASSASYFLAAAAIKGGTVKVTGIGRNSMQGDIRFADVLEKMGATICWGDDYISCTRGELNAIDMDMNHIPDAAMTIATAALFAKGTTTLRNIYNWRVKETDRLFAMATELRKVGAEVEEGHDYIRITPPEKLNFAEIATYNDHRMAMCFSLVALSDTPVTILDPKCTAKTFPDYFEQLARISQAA

For `O=C(O)CNCP(=O)(O)O` [glyphosate], the “growth (shoot and root length) of seeds on medium containing glyphosate” value (shortened to “growth (shoot and root length) of seeds”) [1] was “the majority of seeds with mutations grew well; also recorded: resistant to glyphosate and grew well”, the “growth (shoot and root length) of seeds” value [2] was “more resistant to glyphosate than seeds that were homozygous for each of the single preferred mutations” and the “growth (shoot and root length) of seeds” value [3] was “for the most part failed to grow”. The “sensitivity of mutated enzyme to glyphosate” value [4] was “leads to sensitivity to glyphosate” and the “inhibition of mutated enzyme by glyphosate” value [5] was “reduced inhibition by glyphosate”.
